Measured values taken from patent US7834148B2, “Protein phosphorylation imaging systems, methods of making phosphorylation imaging systems, and methods of use thereof” (Stanford University, priority 2006, dated 2010).

Legend:
[1] = test system: Akt kinase activity; experiment: Akt kinase sensor complemented FL activity, bioluminescence imaging of intact 293T/AS1T and 293T/AS1A stable cells; assay type: cell-based, human
Description: Complemented FL activity at each time point was determined by bioluminescence imaging of intact cells by addition of D-luciferin (FIG. 7a), prior to normalization for protein content (FIG. 7b).
FL activities in intact cells were determined by bioluminescence imaging of intact cells as described above. Cells were lysed in 1% NP40 buffer (Cell Signaling, Beverly, Mass.) for 15 mins on ice followed by centrifugation at 1×10^4 g to remove cell debris. Protein concentrations were determined by Biorad protein Dc assay (Biorad). FL activities were normalized to protein content and then to that of carrier control treated cells and expressed as normalized FL activity±standard error of means (S.E.M.)

[2] = test system: phosphorylated Akt(S^473); experiment: Phosphorylation-specific western blotting of Akt in cell lysates; assay type: cell-based, human; conditions: LY 24 hours or perifosine 6 hours
Description: To validate AS1T as a genetically-encoded reporter for indirect imaging of endogenous Akt kinase activity, confirmation needed to be made that inhibition of endogenous Akt phosphorylation/kinase activities by LY and perifosine corresponded to increase in complemented FL activities in 293T/AS1T cells, but not in 293T/AS1A cells. 293T/AS1T and 293T/AS1A cells were treated with perifosine (6 hours), LY (24 hours) and their respective carrier controls. Complemented FL activities were determined by bioluminescence imaging of intact cells while Akt phosphorylation status/kinase activities in cell lysates were determined by phosphorylation-specific western blotting and in vitro kinase assay using purified glycogen synthase kinase 3β (GSK-3β) as the substrate, respectively. In 293T/AS1T cells treated with LY or perifosine, complemented FL activity increased (FIGS. 8a and 8c), while the amount of phosphorylated Akt (FIGS. 8b and 8d, top panels) and phosphorylated GSk-3, (FIGS. 8b and 8d, bottom panel) decreased, relative to carrier control treated cells. […]
To determine the expression of total and phosphorylated Akt in 293T/AS1A and 293T/AS1T, cell lysates from the triplicate wells from the above FL assay were combined and the protein concentrations were re-determined. […]

## CCCCCCCCCCCCCCCCCCOP(=O)([O-])OC1CC[N+](C)(C)CC1 [perifosine]
[1]; 293T/AS1T at all time points (6, 12, 24 hours) and concentrations tested, compared to 293T/AS1A, p<0.05
  complemented FL activity: dose-dependent increase
[1]; 293T/AS1T cells
  time of maximum increase in complemented FL activity: 6 h
[1]; 293T/AS1T, drug then carrier control, vs carrier control then drug or drug throughout, LY 50 μM 24+24 hours, perifosine 25 μM 6+6 hours
  complemented FL activity after washout (reversibility): significantly lower
[2]; 293T/AS1A cells
  amount of phosphorylated Akt: decreased
[2]; 293T/AS1T cells, relative to carrier control
  amount of phosphorylated Akt: decreased
